Results on ten compounds are retold here after PubChem BioAssay (NCI).

Common to all, as to experiment: growth of human tumour cells (NCI), 48 h
The subject of assay [1] is A498 renal.
Assay [2] concerns DU-145 prostate.
Assay [3] has as its system EKVX NSCLC.
Assay [4] concerns HS 578T breast.
In assay [5] the test system is KM12 colon.
The subject of assay [6] is MDA-MB-435.
Assay [7] has as its system RXF 393 renal.
The test system of assay [8] is SK-OV-3 ovarian.
Assay [9] relates to SR leukemia.
The subject of assay [10] is NCI-H226 lung.

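Step 1: Grow cells in 96-well plates. Step 2: Expose to compound for 48 hours at 5 concentrations. Step 3: Interpolate endpoints linearly; if unreached, use highest concentration. At the GI50, growth is halved. TGI: concentration producing complete growth inhibition.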 Where a SMILES comes first, the peptide text is derived from it. [ ]: non-standard residue; d: D form. The star is where a group is joined. ξ: configuration not given here. 4Abz = Nc1ccc(C(=O)O)cc1; ξL = CC(C)CC(N)C(=O)O; NHOH = ON* Some results are limits rather than exact numbers.

`CCSc1sc(-c2ccc(C)cc2)nc1[P+](c1ccccc1)(c1ccccc1)c1ccccc1`: the GI50 in assay [1] is 0.161 µM; in assay [2] it was 0.346 µM; in assay [3] it was 0.244 µM; in [4] it was 0.394 µM; in assay [5], 0.281 µM; in assay [6] it was 0.268 µM. Moreover, the GI50 in assay [7] is 0.255 µM; in [8], 0.262 µM; in assay [9], 0.354 µM. The TGI in assay [1] was found to be 0.597 µM; in assay [2], 1.35 µM; in [3] it was 0.904 µM; in assay [4], 2.05 µM; in [5], 1.16 µM; in [6], 0.801 µM. For the same compound, the figures for the TGI in [7], in [8] and in assay [9] were 1.23 µM, 0.898 µM and 3.47 µM, respectively.

Turning to `COC(=O)C1=C(O)C(C(=O)OC)[C@@]2(O)[C@@H](C(=O)OC)C(c3ccccc3C(F)(F)F)C[C@@H]1[C@@H]2C(=O)OC` (stereo not given in full), the GI50 in [1] was 3.05 µM; in assay [2] it was 3.23 µM; in assay [3], 6.36 µM; in assay [4], 3.87 µM; in assay [5] it was 16.9 µM; in [6] it was 2.06 µM. The GI50 in assay [7] is 3.11 µM; in [8], 1.58 µM; in [9], 2.82 µM. For the same compound, the TGI was 7.62 µM in assay [1]; 10.9 µM in assay [2]; 19.4 µM in [3]; > 100 µM in assay [4]; 32.8 µM in [5]; 4.53 µM in assay [6]. The TGI in assay [7] was found to be 7.65 µM; in assay [8], 7 µM; in assay [9] it was 62.4 µM.

For the compound `COc1ccc(OC)c(-c2cc(-c3ccc(Cl)cc3)nn2-c2ccc(S(N)(=O)=O)cc2)c1`, the GI50 in assay [1] was 13.9 µM; in assay [2], 12.1 µM; in [3], 11.9 µM; in [4] it was 21.9 µM; in [5], 5.16 µM; in [6], 18.2 µM. Further, the GI50 in assay [10] is 11.4 µM. The TGI in assay [1] is 29.7 µM; in assay [2] it was 25.9 µM; in assay [3] it was 27.5 µM; in [4] it was 63.1 µM; in assay [5], 21.2 µM; in assay [6] it was 43.9 µM. In assay [10], the TGI amounted to 26.1 µM.

On to `NC(=O)c1ncn(C2CCC(CP(=O)(O)O)C2)c1N` (stereo not given), for which the TGI in assay [2], in [3], in assay [4], in assay [5], in assay [6] and in [10] was > 100 µM throughout. The TGI in assay [7], in assay [8] and in [9] was > 100 µM throughout.

With `CC(C)=CCNc1ncnc2c1ncn2C1OC(COP(=O)(O)O)C(O)C1O` (stereo not given), the GI50 in assay [1] is 1.53 µM; in [2], 1.35 µM; in [4] it was 2.67 µM; in [5], 20.1 µM; in assay [6], 6.68 µM; in assay [10] it was 4.7 µM. Further, the GI50 in assay [7] was 2.38 µM; in [8] it was 4.77 µM. The TGI in [1] is 3.3 µM; in assay [2], 4.15 µM; in [4] it was 21.8 µM; in assay [5] it was > 100 µM; in assay [6], > 100 µM; in assay [10] it was 33.9 µM. In addition, the figures for the TGI in assay [7] and in [8] were 8.98 µM and > 100 µM, respectively.

Turning to `Oc1ccc(Br)cc1CN1CCN(Cc2ccc(Cl)cc2)CC1`, the GI50 is 0.4 µM in assay [1]; 46.3 µM in [2]; 28.6 µM in assay [4]; 26.3 µM in assay [5]; 20.8 µM in [6]; 20.8 µM in assay [10]. For the same compound, the GI50 in assay [7] is 17.3 µM; in [8], 31 µM; in assay [9] it was 19.1 µM. Moreover, the TGI in assay [1] is 45 µM; in assay [2], > 100 µM; in [4], > 100 µM; in assay [5], > 100 µM; in assay [6] it was 90.4 µM; in assay [10], > 100 µM. Besides, the TGI in [7] was 80 µM; in [8], > 100 µM; in assay [9] it was 80.9 µM.

On to `N#CC1=C(N)NC(=S)NC1c1ccc(-c2ccc(-c3nc4ccccc4s3)cc2)o1` (stereo not given), for which the GI50 was 42.3 µM in assay [2]; > 50 µM in assay [3]; > 50 µM in assay [4]; 17 µM in assay [5]; 39.1 µM in assay [6]; > 50 µM in assay [8]. Also, in [9], the GI50 is 11.3 µM. Further, the TGI in assay [2], in assay [3], in [4], in assay [5], in assay [6] and in assay [8] was > 50 µM in each case. The TGI in [9] worked out at 25.7 µM.

As for `CC(=O)NC1=NC(=O)/C(=C/c2ccc(Cl)cc2Cl)N1C`, the TGI in [2] is > 100 µM; in assay [3], 50.7 µM; in assay [4], > 100 µM; in assay [5] it was > 100 µM; in assay [6], > 100 µM; in assay [10], 82.5 µM. Moreover, the TGI in assay [7] and in [8] was > 100 µM throughout.

`COC1=CC(=O)c2c(O)c3c(c(O)c2C1=O)CC(C)(O)OC3` (stereo not given): the TGI in [1] is 25.2 µM; in assay [2], 15 µM; in assay [3] it was 18.7 µM; in assay [4], 35.9 µM; in [5] it was > 35.8 µM; in assay [6], 3.05 µM. Also, the results for the TGI in assay [10], in assay [7] and in assay [8] were 37.2 µM, 16.5 µM and 58.9 µM, respectively.

With `CC(C)CC(NC(=O)[C@@H]1CCCN1C(=O)CNC(=O)c1ccc(N)cc1)C(=O)N[C@H](C)C(=O)NO` (stereo not given in full) (H-[4Abz]GP[ξL][dA]-{NHOH}), the GI50 in assay [2], in [3], in [4], in assay [5], in assay [6] and in [10] was > 100 µM throughout. Besides, the GI50 in assay [7] and in [8] was > 100 µM in each case. For the same compound, the TGI in assay [2], in [3], in assay [4], in assay [5], in assay [6] and in assay [10] was > 100 µM throughout. Besides, the TGI in assay [7] and in [8] was > 100 µM each time.
